Results on 21 compounds are retold here after patent publication US10913720B2, “Benzyloxypyridylcyclopropanecarboxylic acids, pharmaceutical compositions and uses thereof” (Boehringer Ingelheim International GmbH, priority 2017, dated 2021).

One may read the EC50 as the concentration at which the effect is half-maximal. A high value points to a less potent agent.

For this experiment, the target named is human GPR40 receptor (Homo sapiens, UniProt O14842). Nature of the experiment: IP1 accumulation measurements using the IPOne assay system. Type of experiment: cell-based. Particulars: 1321N1 cells stably expressing human GPR40; 1 h stimulation at 37° C. Here is the method: IP1 accumulation measurements using the IPOne assay system—1321N1 cells stably expressing human GPR40 receptor (Euroscreen, Belgium) are seeded 24 h before the assay in white 384-well plates in culture medium containing 10% FCS, 1% Na-Pyruvate and 400 μg/mL G418. IP1 is assayed according to the manufacturer's description (Cisbio Bioassays, France). In brief, the assay is started by substitution of the culture medium by stimulation buffer (Hepes 10 mM, CaCl2) 1 mM, MgCl2 0.5 mM, KCl 4.2 mM, NaCl 146 mM, glucose 5.5 mM and LiCl 50 mM, pH 7.4). Cells are stimulated for 1 h at 37° C., 5% CO2 by addition of the compounds that are diluted in stimulation buffer containing LiCl. Assays are stopped by adding HTRF-conjugates (IP1-d2 and Anti-IP1 cryptate Tb) and lysis buffer, provided by the manufacturer. After an incubation time of 1 h at room temperature plates are measured using an EnVision™, Perkin Elmer. The obtained fluorescence ratios at 665/615 […] are then used to calculate the pEC50 values using Assay Explorer 3.3 Software (Accelrys, Inc.) by interpolation using an IP1 reference curve and subsequent sigmoidal curve fitting allowing for a variable hill slope.
Chain of human GPR40 receptor (O14842 whole entry): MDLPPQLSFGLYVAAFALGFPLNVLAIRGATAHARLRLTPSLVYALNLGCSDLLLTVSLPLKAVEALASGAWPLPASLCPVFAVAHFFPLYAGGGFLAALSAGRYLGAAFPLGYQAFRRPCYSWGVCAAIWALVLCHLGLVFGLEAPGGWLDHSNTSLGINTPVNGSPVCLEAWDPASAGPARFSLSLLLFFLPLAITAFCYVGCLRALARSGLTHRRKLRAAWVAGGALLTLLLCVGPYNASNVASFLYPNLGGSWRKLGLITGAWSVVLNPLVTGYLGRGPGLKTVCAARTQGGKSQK

Take `COc1cc(-c2cc(C)c(-c3ccc(F)c(COc4ccc([C@H]5C[C@@H]5C(=O)O)nc4)c3)c(C)c2)ccn1` [Example 20, (1S,2S)-2-{5-[4-Fluoro-4′-(2-methoxy-pyridin-4-yl)-2′,6′-dimethyl-biphenyl-3-ylmethoxy]-pyridin-2-yl}-cyclopropanecarboxylic Acid]: the EC50 amounted to 0.005 µM.

For `Cc1cc(OCC2CCOCC2)cc(C)c1-c1cccc(COc2ccc([C@H]3C[C@@H]3C(=O)O)nc2)c1` [Example 10, (1S,2S)-2-{5-[2′,6′-Dimethyl-4′-(tetrahydro-pyran-4-ylmethoxy)-biphenyl-3-ylmethoxy]-pyridin-2-yl}-cyclopropanecarboxylic Acid], the EC50 amounted to 0.023 µM.

Turning to `COc1ccc(-c2ccc(-c3cc(COc4ccc([C@H]5C[C@@H]5C(=O)O)nc4)ccc3C(F)(F)F)cc2)nn1` [Example 29, (1S,2S)-2-{5-[4′-(6-Methoxy-pyridazin-3-yl)-6-trifluoromethyl-biphenyl-3-ylmethoxy]-pyridin-2-yl}-cyclopropanecarboxylic Acid], the EC50 was 0.01 µM.

As for `Cc1cnc(-c2cc(C)c(-c3ccc(F)c(COc4ccc([C@H]5C[C@@H]5C(=O)O)nc4)c3)c(C)c2)nc1` [Example 22, (1S,2S)-2-{5-[4-Fluoro-2′,6′-dimethyl-4′-(5-methyl-pyrimidin-2-yl)-biphenyl-3-ylmethoxy]-pyridin-2-yl}-cyclopropanecarboxylic Acid], the EC50 is 0.004 µM. Against the preceding compound, the EC50 is about 2.5-fold lower.

`COc1cc(-c2cc(C)c(-c3cccc(COc4ccc([C@H]5C[C@@H]5C(=O)O)nc4)c3)c(C)c2)ccn1` [Example 8, (1S,2S)-2-{5-[4′-(2-Methoxy-pyridin-4-yl)-2′,6′-dimethyl-biphenyl-3-ylmethoxy]-pyridin-2-yl}-cyclopropanecarboxylic Acid] came in with a half-maximal effective concentration (EC50) of 0.006 µM.

Regarding `Cc1cnc(-c2cc(C)c(-c3cccc(COc4ccc([C@H]5C[C@@H]5C(=O)O)nc4)c3)c(C)c2)nc1` [Example 2, (1S,2S)-2-{5-[2′,6′-Dimethyl-4′-(5-methyl-pyrimidin-2-yl)-biphenyl-3-ylmethoxy]-pyridin-2-yl}-cyclopropanecarboxylic Acid], the midpoint of the response, the EC50, lay at 0.006 µM.

For the compound `O=C(O)[C@H]1C[C@@H]1c1ccc(OCc2cccc(-c3c(Cl)cccc3Cl)c2)cn1` [Example 15, (1S,2S)-2-[5-(2′,6′-Dichloro-biphenyl-3-ylmethoxy)-pyridin-2-yl]-cyclopropane-carboxylic Acid], the EC50 was determined as 0.024 µM. Against the preceding compound, the EC50 is about 4-fold higher.

The compound `COc1cc(C)c(-c2cccc(COc3ccc([C@H]4C[C@@H]4C(=O)O)nc3)c2)c(C)c1` [Example 14, (1S,2S)-2-[5-(4′-Methoxy-2′,6′-dimethyl-biphenyl-3-ylmethoxy)-pyridin-2-yl]-cyclopropanecarboxylic Acid] came in with an EC50 of 0.027 µM.

In turn, `CC(C)(O)CCOc1ccc(-c2cc(COc3ccc([C@H]4C[C@@H]4C(=O)O)nc3)ccc2C(F)(F)F)cc1` [Example 30, (1S,2S)-2-{5-[4′-(3-Hydroxy-3-methyl-butoxy)-6-trifluoromethyl-biphenyl-3-ylmethoxy]-pyridin-2-yl}-cyclopropanecarboxylic Acid] returned an EC50 of 0.012 µM.

In the case of `Cc1cc(C(=O)O)cc(C)c1-c1ccc(F)c(COc2ccc([C@H]3C[C@@H]3C(=O)O)nc2)c1` [Example 24, (1S,2S)-3′-[6-(−2-Carboxy-cyclopropyl)-pyridin-3-yloxymethyl]-4′-fluoro-2,6-dimethyl-biphenyl-4-carboxylic Acid], the EC50 was found to be 2.12 µM.

The compound `Cc1cc(-c2ccc(=O)n(C)c2)cc(C)c1-c1cccc(COc2ccc([C@H]3C[C@@H]3C(=O)O)nc2)c1` [Example 4, (1S,2S)-2-{5-[2′,6′-Dimethyl-4′-(1-methyl-6-oxo-1,6-dihydro-pyridin-3-yl)-biphenyl-3-ylmethoxy]-pyridin-2-yl}-cyclopropanecarboxylic Acid] showed an EC50 of 0.015 µM.

`Cc1cc(-c2cnccn2)cc(C)c1-c1ccc(F)c(COc2ccc([C@H]3C[C@@H]3C(=O)O)nc2)c1` [Example 19, (1S,2S)-2-[5-(4-Fluoro-2′,6′-dimethyl-4′-pyrazin-2-yl-biphenyl-3-ylmethoxy)-pyridin-2-yl]-cyclopropanecarboxylic Acid] came in with an EC50 of 0.007 µM. This EC50 lies about 2.1-fold lower than the previous one.

`Cc1cc(OCC2CCCO2)cc(C)c1-c1cccc(COc2ccc([C@H]3C[C@@H]3C(=O)O)nc2)c1` (stereo partly drawn) [Example 11, (1S,2S)-2-{5-[2′,6′-Dimethyl-4′-(tetrahydro-furan-2-ylmethoxy)-biphenyl-3-ylmethoxy]-pyridin-2-yl}-cyclopropanecarboxylic Acid] had an EC50 of 0.032 µM.

As to `Cc1cc(-c2ccnn2C)cc(C)c1-c1cccc(COc2ccc([C@H]3C[C@@H]3C(=O)O)nc2)c1` [Example 7, (1S,2S)-2-{5-[2′,6′-Dimethyl-4′-(2-methyl-2H-pyrazol-3-yl)-biphenyl-3-ylmethoxy]-pyridin-2-yl}-cyclopropanecarboxylic Acid], the response was half-maximal at 0.011 µM (EC50).

Compound `Cc1cc(OCCCS(C)(=O)=O)cc(C)c1-c1cccc(COc2ccc([C@H]3C[C@@H]3C(=O)O)nc2)c1` [Example 16, (1S,2S)-2-{5-[4′-(3-Methanesulfonyl-propoxy)-2′,6′-dimethyl-biphenyl-3-ylmethoxy]-pyridin-2-yl}-cyclopropanecarboxylic Acid] showed an EC50 of 0.037 µM.

`Cc1cc(OCC(C)(C)O)cc(C)c1-c1ccc(F)c(COc2ccc([C@H]3C[C@@H]3C(=O)O)nc2)c1` [Example 25, (1S,2S)-2-{5-[4-Fluoro-4′-(2-hydroxy-2-methyl-propoxy)-2′,6′-dimethyl-biphenyl-3-ylmethoxy]-pyridin-2-yl}-cyclopropanecarboxylic Acid] came in with an EC50 of 0.036 µM.

With `CCc1cccc(CC)c1-c1cccc(COc2ccc([C@H]3C[C@@H]3C(=O)O)nc2)c1` [Example 9, (1S,2S)-2-[5-(2′,6′-Diethyl-biphenyl-3-ylmethoxy)-pyridin-2-yl]-cyclopropane-carboxylic Acid], a half-maximal response (EC50) required 0.062 µM. Compared with the last compound, the EC50 is about 1.7-fold higher.

`Cc1cc(-c2nnn(CC(C)(C)O)n2)cc(C)c1-c1cccc(COc2ccc([C@H]3C[C@@H]3C(=O)O)nc2)c1` [Example 6, (1S,2S)-2-(5-{4′-[2-(2-Hydroxy-2-methyl-propyl)-2H-tetrazol-5-yl]-2′,6′-dimethyl-biphenyl-3-ylmethoxy}-pyridin-2-yl)-cyclopropanecarboxylic Acid]: a half-maximal response (EC50) required 0.009 µM.

As for `Cc1cc(-c2cnccn2)cc(C)c1-c1cccc(COc2ccc([C@H]3C[C@@H]3C(=O)O)nc2)c1` [Example 5, (1S,2S)-2-[5-(2′,6′-Dimethyl-4′-pyrazin-2-yl-biphenyl-3-ylmethoxy)-pyridin-2-yl]-cyclopropanecarboxylic Acid], the midpoint of the response, the EC50, lay at 0.011 µM.

`Cc1cc(OC2CCOCC2)cc(C)c1-c1cccc(COc2ccc([C@H]3C[C@@H]3C(=O)O)nc2)c1` [Example 13, (1S,2S)-2-{5-[2′,6′-Dimethyl-4′-(tetrahydro-pyran-4-yloxy)-biphenyl-3-ylmethoxy]-pyridin-2-yl}-cyclopropanecarboxylic Acid] came in with a concentration giving a half-maximal response (EC50) of 0.029 µM.

`Cc1cc(O[C@H]2CCOC2)cc(C)c1-c1cccc(COc2ccc([C@H]3C[C@@H]3C(=O)O)nc2)c1` [Example 12, (1S,2S)-2-(5-{2′,6′-Dimethyl-4′-[(S)-(tetrahydrofuran-3-yl)oxy]-biphenyl-3-ylmethoxy}-pyridin-2-yl)-cyclopropanecarboxylic Acid]: the EC50 worked out at 0.027 µM.
